Assay results published in patent publication EP0462585B1, “Herbicidal composition” (ISHIHARA SANGYO KAISHA, LTD., priority 1990, dated 1991).
Structures can show the parent of a compound that is named as a salt. Where two headings read alike, the source gives them in different places.

Key:
Assay type in all cases: in vivo
Solidago altissima = assay: Test Example 1 foliage treatment test, fresh weight of foliage; settings: foliar, 600 h, read-out: Growth Inhibition Rate (%)
Description: Upland soil was placed in 1/5000-are (are (a) = 100 m²) wagner pots and planted with hills of Solidago altissima collected in the fields, and the hills were thereafter grown in a greenhouse. When the plant height reached 20 to 30 cm, a predetermined amount of each herbicidal composition which had been diluted with 15 ℓ, per are, of water and further admixed with 0.05 % (v/v) of a spreader (Shin Rino®: manufactured by Nihon Nohyaku Co., Ltd.) was foliarly applied on the plants using a small spray gun. 25 days after the foliage treatment application, the fresh weight of foliage was measured. The growth inhibition rate (%), which is listed in Table 1, was calculated according to the following equation: Growth Inhibition Rate (%) = (1 -(Fresh Weight of Foliage in Treated Plot)/(Fresh Weight of Foliage in Untreated Plot)) x 100 [formula]

[1] = test system: weeds such as Solidago altissima, Agropyron smithii and Digitaria sanguinalis; assay: Test Example 3 field foliage treatment test, visual rating of herbicidal effect; settings: visual observation 30 days after foliage treatment
Description: In a field where weeds such as Solidago altissima, Agropyron smithii and Digitaria sanguinalis had been growing mixedly, foliage treatment application of a predetermined amount of each herbicidal composition which had been diluted with 15 ℓ, per are, of water and further admixed with 0.05 % (v/v) of a spreader (Shin Rino®) was done using a small spray gun when the average plant height of these weeds reached 20 to 40 cm. 30 days after the foliage treatment application, the herbicidal effect of the herbicidal composition was examined through visual observation according to the following evaluation criteria.

Digitaria sanguinalis = assay: Test Example 2 foliage treatment test, fresh weight of aerial part; Colby expected value; settings: foliar, 480 h, read-out: Growth Inhibition Rate (%) Found
Description: However, there may be a case that when two kinds of active ingredients are applied in combination, the resulting herbicidal activity is higher than one obtained by simply summing up the activity of each of the two active ingredients (i.e., an expected activity). In such a case, it is said that a synergistic action is found. The expected activity which is brought by a specific combination of two kinds of herbicides can be calculated by the following equation as described, for example, in S.R. Colby, Weeds, "Calculating Synergistic and Antagonistic Responses of Herbicide Combinations", Vol. 15, pp. 20-22 (1967). E = α + β -(α x β)/(100) [formula] In the above equation, α represents a growth inhibition rate (%) when treated with a (g/are) of herbicide A; β represents a growth inhibition rate (%) when treated with b (g/are) of herbicide B; and E represents an expected growth inhibition rate (%) when treated with a (g/are) of herbicide A and b (g/are) of herbicide B.
Upland soil was placed in 1/10000-are pots and sown with Digitaria sanguinalis. When the plants reached the four-leaf stage, a predetermined amount of each herbicidal composition which had been diluted with 15 ℓ, per are, of water and further admixed with 0.2 % (v/v) of a spreader (Shin Rino®) was foliarly applied on the plants using a small spray gun. 20 days after the foliage treatment application, the fresh weight of the aerial part of the plant was measured. The growth inhibition rate (%) calculated by the equation given in Test Example 1 (found value) and the growth inhibition rate (%) calculated by the above-cited Colby equation (calculated value) are listed in Table 2.

## C[C@H](NC(=O)[C@H](C)NC(=O)C(N)CCP(C)(=O)O)C(=O)O (stereo partly drawn) [Sodium salt of L-isomer of Compound C, L-2-amino-4-[(hydroxy)(methyl)phosphinoyl]butyryl-L-alanyl-L-alanine]
Solidago altissima; 2.5 g/a active ingredient, 25 days after foliage treatment
  inhibition at 250 g/ha: 51%
Solidago altissima; 5 g/a active ingredient, 25 days after foliage treatment
  inhibition at 500 g/ha: 70%
Solidago altissima; 10 g/a active ingredient, 25 days after foliage treatment
  inhibition at 1000 g/ha: 79%
[1]; 5 g/a active ingredient
  Rating: 5 (50 to 59)
[1]; 10 g/a active ingredient
  Rating: 6 (60 to 69)

## CP(=O)(O)CCC(N)C(=O)O (racemic) [Ammonium salt of D,L-isomer of Compound B, D,L-homoalanin-4-yl(methyl)phosphinic acid]
Solidago altissima
  inhibition at 250 g/ha: 55%
  inhibition at 500 g/ha: 72%
  inhibition at 1000 g/ha: 84%
Digitaria sanguinalis
  inhibition at 30 g/ha: 0.9%
  inhibition at 50 g/ha: 12.8%
  inhibition at 100 g/ha: 35.8%
  inhibition at 200 g/ha: 52.3%
  inhibition at 300 g/ha: 85%
  inhibition at 400 g/ha: 90%
  inhibition at 1000 g/ha: 100%
[1]; 5 g/a active ingredient
  Rating: 5 (50 to 59)
[1]; 10 g/a active ingredient
  Rating: 7 (70 to 79)

## COc1cc(OC)nc(NC(=O)NS(=O)(=O)c2ncccc2C(F)(F)F)n1 [Compound A, 1-(4,6-dimethoxypyrimidin-2-yl)-3-(3-trifluoromethyl-2-pyridylsulfonyl)urea]
Solidago altissima; 0.25 g/a active ingredient, 25 days after foliage treatment
  inhibition at 25 g/ha: 46%
Solidago altissima; 0.5 g/a active ingredient, 25 days after foliage treatment
  inhibition at 50 g/ha: 51%
Solidago altissima; 1 g/a active ingredient, 25 days after foliage treatment
  inhibition at 100 g/ha: 63%
Digitaria sanguinalis; 0.05 g/a active ingredient, 20 days after foliage treatment
  inhibition at 5 g/ha: 0%
Digitaria sanguinalis; 0.1 g/a active ingredient, 20 days after foliage treatment
  inhibition at 10 g/ha: 3.5%
Digitaria sanguinalis; 0.2 g/a active ingredient, 20 days after foliage treatment
  inhibition at 20 g/ha: 5.3%
Digitaria sanguinalis; 0.4 g/a active ingredient, 20 days after foliage treatment
  inhibition at 40 g/ha: 16.9%
Digitaria sanguinalis; 0.6 g/a active ingredient, 20 days after foliage treatment
  inhibition at 60 g/ha: 47.4%
Digitaria sanguinalis; 1 g/a active ingredient, 20 days after foliage treatment
  inhibition at 100 g/ha: 67.3%
Digitaria sanguinalis; 5 g/a active ingredient, 20 days after foliage treatment
  inhibition at 500 g/ha: 99.4%
[1]; 0.5 g/a active ingredient
  Rating: 5 (50 to 59)
[1]; 1 g/a active ingredient
  Rating: 6 (60 to 69)

## CP(=O)(O)CC[C@H](N)C(=O)O [Ammonium salt of L-isomer of Compound B, L-homoalanin-4-yl(methyl)phosphinic acid]
Solidago altissima
  inhibition at 125 g/ha: 48%
  inhibition at 250 g/ha: 68%
  inhibition at 500 g/ha: 77%
[1]; 5 g/a active ingredient
  Rating: 5 (50 to 59)
[1]; 10 g/a active ingredient
  Rating: 6 (60 to 69)
